Experimental data taken from patent publication US12448390B1, “Compound with α-glucosidase inhibitory activity and application thereof” (priority 2024, dated 2025).

Target: a-glucosidase (Saccharomyces cerevisiae, UniProt P53341)
Format: biochemical
Settings: 0.5 U/ml enzyme, 0.6 mM pNaGP, pH 6.8, 37° C.; for Inhibition rate %: compound at 250 μmol/L; for IC50: gradient 500 to 7.8125 μmol/L
Description: An in vitro a-glucosidase activity assay was used for activity determination:
the compounds were weighed separately, and dissolved in dimethylsulfoxide (DMSO) to prepare 250 μmol/L of a reagent for a subsequent experiment. In short, a-glucosidase solution with a final concentration of 0.5 U/ml was reacted with 250 μmol/L of the compound and 0.6 mM of pNaGP solution in 0.1 mM, pH 6.8 phosphate buffer solution, to determine the inhibitory effect of the compound on an a-glucosidase conversion substrate. […] 250 μmol/L (10 μL) of the compound, enzyme solution (40 μL), and potassium phosphate buffer solution (100 μL) were pre-incubated in a 96-well plate at 37° C. for 10 min. Then, 50 μL of the substrate (pNaGP, 0.6 mM) was added to each micropore, it was incubated at 37° C. for 20 min, the absorbance was measured at 405 nm, and changes in enzyme activity were detected.
The formula for calculating the enzyme inhibitory activity of the compound tested was as follows:
The in vitro a-glucosidase activity assay was used for activity determination:
after the compounds were weighed separately, it was dissolved in DMSO to prepare 1 mmol/L of mother solution, and it was diluted in gradient to 500 μmol/L, 250 μmol/L, 125 μmol/L, 62.5 μmol/L, 31.25 μmol/L, 15.625 μmol/L and 7.8125 μmol/L. The different concentrations of the compounds (10 μL), 0.5 U/ml of enzyme solution (40 μL), and 0.1 mM, pH 6.8 phosphate buffer solution (100 μL) were pre-incubated in the 96-well plate at 37° C. for 10 min. Then, 50 μL of the substrate (pNaGP, 0.6 mM) was added to each micropore, it was incubated at 37° C. for 20 min, the absorbance was measured at 405 nm, and changes in enzyme activity were detected.

Chain of a-glucosidase (P53341 whole entry): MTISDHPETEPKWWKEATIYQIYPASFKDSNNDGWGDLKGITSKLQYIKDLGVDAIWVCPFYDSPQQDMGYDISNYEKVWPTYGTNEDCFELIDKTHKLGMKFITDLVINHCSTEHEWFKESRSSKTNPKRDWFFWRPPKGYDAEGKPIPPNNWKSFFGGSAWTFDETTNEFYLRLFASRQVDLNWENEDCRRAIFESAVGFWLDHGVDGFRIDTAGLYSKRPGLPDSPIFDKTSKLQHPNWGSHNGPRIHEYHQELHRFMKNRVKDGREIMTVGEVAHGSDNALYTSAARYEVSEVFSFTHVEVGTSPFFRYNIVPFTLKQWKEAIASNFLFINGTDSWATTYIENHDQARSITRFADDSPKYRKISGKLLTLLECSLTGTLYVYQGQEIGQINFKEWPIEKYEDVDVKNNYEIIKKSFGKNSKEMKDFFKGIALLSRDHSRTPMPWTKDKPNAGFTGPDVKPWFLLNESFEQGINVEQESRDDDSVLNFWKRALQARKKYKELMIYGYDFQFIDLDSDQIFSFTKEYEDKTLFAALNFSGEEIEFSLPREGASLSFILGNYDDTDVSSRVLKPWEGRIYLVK

SMILES | Inhibition rate % [%] | IC50 [µM]
Cc1ncc(CO)c2cc(C(=O)Nc3ccc(F)cc3)c(=Nc3cccc(C(F)(F)F)c3)oc12 [GFY-1] | 23.042 | 
Cc1ncc(CO)c2cc(C(=O)Nc3ccc(F)cc3)c(=Nc3ccc(C(F)(F)F)cc3)oc12 [GFY-2] | 13.832 | 
COc1cccc(N=c2oc3c(C)ncc(CO)c3cc2C(=O)Nc2ccc(F)cc2)c1 [GFY-4] | 30.769 | 
Cc1ncc(CO)c2cc(C(=O)Nc3ccc(F)cc3)c(=Nc3cc(O)cc(CO)c3)oc12 [GFY-7] | 45.254 | 
Cc1ncc(CO)c2cc(C(=O)Nc3ccc(F)c(F)c3)c(=Nc3cc(O)cc(CO)c3)oc12 [GFY-13] | 13.978 | 
Cc1ncc(CO)c2cc(C(=O)Nc3ccc(F)c(Cl)c3)c(=Nc3cccc(CO)c3)oc12 [GFY-16] | 89.604 | 140
Cc1ncc(CO)c2cc(C(=O)Nc3ccc(F)c(Cl)c3)c(=Nc3cc(O)cc(CO)c3)oc12 [GFY-17] | 31.045 | 
Cc1ncc(CO)c2cc(C(=O)Nc3ccc(F)cc3)c(=Nc3ccc(F)cc3)oc12 [GFY-20] | 95.56 | 20.1
Cc1ncc(CO)c2cc(C(=O)Nc3ccc(F)cc3)c(=Nc3cc(F)cc(F)c3)oc12 [GFY-21] | 99.916 | 43.1
Cc1ncc(CO)c2cc(C(=O)Nc3ccc(F)cc3)c(=Nc3ccc(F)c(F)c3)oc12 [GFY-22] | 86.819 | 37
Cc1ncc(CO)c2cc(C(=O)Nc3ccc(F)c(Cl)c3)c(=Nc3ccc(F)cc3)oc12 [GFY-23] | 22.127 | 
Cc1ncc(CO)c2cc(C(=O)Nc3ccc(F)c(Cl)c3)c(=Nc3cc(F)cc(F)c3)oc12 [GFY-24] | 99.833 | 16.6
Cc1ncc(CO)c2cc(C(=O)Nc3ccc(F)c(Cl)c3)c(=Nc3ccc(F)c(F)c3)oc12 [GFY-25] | 69.628 | 
Cc1ncc(CO)c2cc(C(=O)Nc3ccc(F)c(Cl)c3)c(=Nc3ccc(Cl)cc3)oc12 [GFY-26] | 62.651 | 
Cc1ncc(CO)c2cc(C(=O)Nc3ccc(F)c(Cl)c3)c(=Nc3cc(Br)cc(Br)c3)oc12 [GFY-27] | 56.656 | 
Cc1ncc(CO)c2cc(C(=O)Nc3ccc(F)c(Cl)c3)c(=Nc3ccc(Br)c(Br)c3)oc12 [GFY-28] | 64.035 | 
Cc1ncc(CO)c2cc(C(=O)Nc3ccc(F)cc3)c(=Nc3cc(Br)cc(Br)c3)oc12 [GFY-29] | 94.686 | 27
